Like-named read-outs stand apart in the source and are kept apart here. Numbered stars: 1 amine (or outer) side, 2 acyl side, 3 side chain; on linkers, the order of the positions; unused ones are H or OH. Bridge positions count the residues as written; N and C are the ends. Square brackets hold non-standard residues; d marks the D form. Peptide text beside a SMILES is read from it. * marks the point of attachment. Adda = CO[C@@H](Cc1ccccc1)[C@@H](C)/C=C(C)/C=C/[C@H](N[*:1])[C@H](C)C(=O)[*:2]; dAsp(3S-Me) = C[C@H](C(=O)[*:3])[C@@H](N[*:1])C(=O)[*:2]; d(γGlu) = O=C(O)[C@@H](CCC(=O)[*:2])N[*:1]; Cbz = O=C(OCc1ccccc1)*; NMeDha = C=C(NC)C(=O)O
Legend:
PC-3-GFP^u cells = assay type: cell-based
[1] = tested on: proteasome PGPH activity in PC-3-GFP^u whole cell extracts; assay type: cell-based
[2] = tested on: proteasome TL activity in the liver of Gobiocypris rarus; conditions: in vivo
[3] = tested on: serine/threonine protein phosphatases (PPs); conditions: cited from earlier work
[4] = tested on: proteasome TL activity in PC-3-GFP^u whole cell extracts; assay type: cell-based
animal cells = conditions: cited from earlier work
[5] = tested on: proteasome CT activity in PC-3-GFP^u whole cell extracts; assay type: cell-based
protease = conditions: cited from earlier work

SMILES | GFP degradation / accumulation of ubiquitinated GFP (PC-3-GFP^u cells; MG-132 1 μM (positive control), 24 h, vs DMSO, fluorescence microscopy) | GFP degradation / accumulation of ubiquitinated GFP (PC-3-GFP^u cells) | effect on cellular proteasome PGPH activity [1] | dose dependence of inhibition of proteasome TL activity in the liver [2] | inhibition rate of proteasome TL activity in the liver ([2]; pH 7.4) [%] | inhibition of serine/threonine protein phosphatases [3] | inhibition of cellular proteasome TL activity [4] [%] | induction of oxidative stress (animal cells) | effect on cellular proteasome CT activity [5] | degradation by protease (protease)
CC(C)C[C@@H](C=O)NC(=O)[C@H](CC(C)C)NC(=O)[C@H](CC(C)C)NC(=O)OCc1ccccc1 [MG-132] (Cbz-Leu-Leu-Leu-aldehyde) | GFP degradation was retarded and ubiquitinated GFP accumulated |  |  |  |  |  |  |  |  | 
C=C1C(=O)N[C@H](C)C(=O)N[C@@H](CC(C)C)C(=O)N[C@@H](C(=O)O)[C@H](C)C(=O)N[C@@H](CCCNC(=N)N)C(=O)N[C@@H](/C=C/C(C)=C/[C@H](C)[C@H](Cc2ccccc2)OC)[C@H](C)C(=O)N[C@@H](C(=O)O)CCC(=O)N1C [MC-LR, microcystin-LR] (R[Adda][d(γGlu)][NMeDha][dA]L[dAsp(3S-Me)]-OH; lactam N-7) |  | Ubiquitinated GFP also accumulated | slightly inhibited | dose-dependently inhibited | 43 | inhibition to serine/threonine protein phosphatases | 34 | induce oxidative stress in animal cells | did not evidently change | cannot be degraded by protease
